Data taken from patent publication US7279179B2, “Liposome-entrapped topoisomerase inhibitors” (ALZA Corporation, priority 1988, dated 2007).
Each block holds one molecule with its values, some of them ahead of it.

How the values were obtained:
[1] = Plasma pharmacokinetics of liposome-entrapped and free CKD-602 in rats; conditions: 1 mg/kg
[2] = test system: HT-29 colon cancer xenograft; experiment: HT-29 xenograft efficacy of liposome-entrapped CKD-602 (Example 5); format: in vivo, mice
in vivo = conditions: rat
[3] = test system: HT-29 subcutaneous xenograft tumor; format: in vivo
[4] = Plasma pharmacokinetics of liposome-entrapped and free topotecan in rats; format: in vivo; conditions: for Vol. Dist. / elimination rate constant: i.v.; for AUC / Cmax / clearance / half-life: rat, plasma, iv; for half-life: read-out: T ½ (converted)
Protocol: FIGS. 4A–4B show the plasma concentration of topotecan as a function of time after administration to rats. […] FIG. 4B compares the two forms of the drug at a dosage of 5 mg/kg.

[5] = 20 mg/kg i.v. days 11, 18, 25, animals/group
[6] = 25 mg/kg i.v. days 9, 16, 23, groups of 12 mice

Structure (SMILES): CC[C@@]1(O)C(=O)OCc2c1cc1n(c2=O)Cc2c-1nc1ccccc1c2CCNC(C)C [free CKD602]
- AUC [1]: 0.37 µg/mL/h
- calculated half-life [1]: 12 min
- tumor growth rate ([2]; 20 mg/kg): 15.21 mm^3 per day
- % T/C Day 29 ([2]; 20 mg/kg i.v. days 11, 18, 25): 129.1%
- % T/C Day 33 ([2]; 20 mg/kg i.v. days 11, 18, 25): 120.1%
- % T/C Day 36 ([2]; 20 mg/kg i.v. days 11, 18, 25): 99.9%
- Complete Remission [2, 5]: 0/6
- Non-Responsive [2, 5]: 6/6
- Partial Remission [2, 5]: 0/6

- half-life (in vivo): ~50 min
Structure (SMILES): CC[C@@]1(O)C(=O)OCc2c1cc1n(c2=O)Cc2c-1nc1cc3c(cc1c2CN1CCN(C)CC1)OCCO3 [free MPE-camptothecin, 7-(4-methyl-piperazino-methylene)-10,11-ethylenedioxy-20(S)-camptothecin]

Structure (SMILES): CC[C@@]1(O)C(=O)OCc2c1cc1n(c2=O)Cc2cc3c(CN(C)C)c(O)ccc3nc2-1 [free topotecan, 9-dimethyl-aminomethyl-10-hydroxycamptothecin]
- tumor growth rate ([3]; 25 mg/kg): 14.1 mm^3 per day
- % T/C Day 29 ([3]; 25 mg/kg i.v. days 9, 16, 23): 82.8%
- % T/C Day 33 ([3]; 25 mg/kg i.v. days 9, 16, 23): 79.0%
- % T/C Day 36 ([3]; 25 mg/kg i.v. days 9, 16, 23): 85.9%
- Complete Remission (number of animals) [3, 6]: 0
- Non-Responsive (number of animals) [3, 6]: 11
- Partial Remission (number of animals) [3, 6]: 1
- Vol. Dist. ([4]; Dosage = 2 mg/kg): 173 mL
- elimination rate constant ([4]; Dosage = 2 mg/kg): 3.45 h⁻¹
- Vol. Dist. ([4]; Dosage = 5 mg/kg): 278 mL
- elimination rate constant ([4]; Dosage = 5 mg/kg): 2.33 h⁻¹
- AUC ([4]; Dosage = 2 mg/kg): 570 ng·h/mL
- Cmax ([4]; Dosage = 2 mg/kg): 2890 ng/mL
- clearance ([4]; Dosage = 2 mg/kg): 14.8 mL/min
- half-life ([4]; Dosage = 2 mg/kg): 12 min
- AUC ([4]; Dosage = 5 mg/kg): 1570 ng·h/mL
- Cmax ([4]; Dosage = 5 mg/kg): 8230 ng/mL
- clearance ([4]; Dosage = 5 mg/kg): 13.7 mL/min
- half-life ([4]; Dosage = 5 mg/kg): 18 min
